We go through 7 compounds from patent US20220135622A1, “ANTIBACTERIAL PEPTIDES AND METHODS OF USE” (priority 2019, published 2022).

One test deals with E. coli imp4213. Put plainly: MIC assay, E. coli imp4213. The settings on record: Table 7. Format: cell-based, Escherichia coli. As to the method: (§1) Bacterial growth conditions. LB or Mueller Hinton II cation-adjusted broth (MHB II, BBL 212322) was prepared according to manufacturer's instructions and supplemented with arabinose at 0.02% for overnight growth or at indicated concentrations in the description of the figures. Bacterial cultures were grown at 37° C. When appropriate, media was supplemented with kanamycin (50 μg/mL), carbenicillin (50 μg/mL), chloramphenicol (12.5 or 25 μg/mL), hygromycin (200 μg/mL), and/or gentamicin (10 μg/mL).
(§2) Peptide sensitivity and MIC assays. Lyophilized peptides (Smartox Biotechnology, CPC Scientific. ABclonal) were solubilized to 10 mM in Tris buffer, pH 8, prior to making a 2-fold dilution series in MHBII cation adjusted broth with highest final assay concentration of 400-800 μM. Bacteria were grown to log phase and added to final OD600˜0.001. The final EDTA concentration was 0.5 mM for E. coli strains and 0.125 mM for USA300. The final volume of 10 μL/well in a 384 well black, clear bottom plate (Corning) was spun <1 min at <250×g and then incubated at 37° C. After 4 h, an equal volume (10 μL) of BacTiter-Glo™ (Promega) was added to each well and luminescence was read after 5 min on an EnVision plate reader (PerkinElmer). To measure the minimal inhibitory concentrations (MICs), bacteria from fresh overnight plates or log phase cultures were diluted with or without EDTA and peptides as described above to final OD600˜0.0002. Plates were incubated at 37° C. for 20 h before measuring OD600 with an EnVision plate reader.

In another test the test system is S. aureus USA300. Briefly: MIC assay, S. aureus USA300. The class given is cell-based, Staphylococcus aureus. The settings on record: Table 7. The method, then:
as §1, §2

Another test relates to E. coli BW25113. The class given is cell-based, Escherichia coli. Put shortly:
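Growth inhibition: log-phase cells (OD600 ~0.001), peptides in 2-fold series up to 400–800 μM in MHB II, EDTA 0.5 mM (E. coli) or 0.125 mM (USA300), 4 h at 37 °C, ATP luminescence readout. MICs: inoculum at OD600 ~0.0002, with or without EDTA, 20 h at 37 °C, OD600 endpoint.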

Another test deals with E. coli ΔwaaD. Briefly: MIC assay, E. coli ΔwaaD. Format: cell-based, Escherichia coli. The settings on record: Table 7; + EDTA. The method, then:
as §1, §2

For a further test, the system named is A. baumannii. Format: cell-based, Acinetobacter baumannii. The settings on record: Table 8. A digest of the protocol: (§3)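 Dilute peptide 2-fold in cation-adjusted MHB II to a top final concentration of 400-800 μM. Add bacteria to final OD600 ~0.0002 along with EDTA (0.5 mM E. coli, 0.125 mM USA300). Incubate 20 h at 37° C, then measure OD600.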
For another test, the system named is E. coli ΔwaaD + vect. Briefly: MIC assay, E. coli ΔwaaD + vect. The class given is cell-based, Escherichia coli. The settings on record: Table 7. The method, then: as §1, §2
The subject of a further test is K. pneumoniae. Format: cell-based, Klebsiella pneumoniae. The settings on record: Table 8. Put shortly: as §3
The next test concerns E. coli ΔwaaD MCR-1. Briefly: MIC assay, E. coli ΔwaaD MCR-1. Format: cell-based, Escherichia coli. The settings on record: Table 7. As to the method: as §1, §2
The next test has as its system P. aeruginosa. The class given is cell-based, Pseudomonas aeruginosa. The settings on record: Table 8. Put shortly: as §3

Converted amounts (≈) assume the structure as drawn. Read-outs that look alike come from different tables or passages of the source. Square brackets hold non-standard residues; d marks the D form. Peptide text beside a SMILES is read from it. Bip = N[C@@H](Cc1ccc(-c2ccccc2)cc1)C(=O)O; Dap = NC[C@H](N)C(=O)O

Consider Ac-SSYPMTARRFLEKHGLLD-NH2 [compound 9], for which the “MIC E. coli imp4213” value in the test with E. coli imp4213 is 800 µM. Also, the “MIC S. aureus USA300” value in the test on S. aureus USA300 is over 800 µM. Also, in the test with E. coli BW25113 (Table 7), the “MIC E coli BW25113 + EDTA” value was over 800 µM. Further, the “MIC E. coli BW25113” value in the test with E. coli BW25113 (Table 7, no EDTA) is over 800 µM. Also, in the test on E. coli ΔwaaD, the “MIC E. coli ΔwaaD + EDTA” value is over 800 µM.
Take Ac-YPMTARRFLEKHGL-NH2 [compound 12]: in the test with E. coli BW25113 (Table 7), the “MIC E coli BW25113 + EDTA” value stood at 800 µM. In addition, in the test on E. coli ΔwaaD, the “MIC E. coli ΔwaaD + EDTA” value was 400 µM.
For “Ac-GSSYPMTARRFLEKWGLLR-NH2 (N-terminus and C-terminus assumed) [compound 5]” the same measures were 400 µM and 100 µM.
For the compound Ac-YPMTARRFLEKHGLL-NH2 [compound 11], the “MIC E. coli imp4213” value with E. coli imp4213 amounted to 200 µM. Also, in the test on S. aureus USA300, the “MIC S. aureus USA300” value is over 800 µM. Moreover, the “MIC E coli BW25113 + EDTA” value in the test with E. coli BW25113 (Table 7) is 400 µM. In addition, the “MIC E. coli BW25113” value against E. coli BW25113 (Table 7, no EDTA) is over 800 µM. In the test on E. coli ΔwaaD, the “MIC E. coli ΔwaaD + EDTA” value was found to be 400 µM.
For Ac-YPMTMRRFLEKWGLLR-NH2 [compound 58], in the test with E. coli imp4213, the “MIC E. coli imp4213” value amounted to 12.5 µM. Further, the “MIC A. baumannii” value in the test with A. baumannii came out at 25 µM. Besides, the “MIC E. coli ΔwaaD + vect.” value in the test with E. coli ΔwaaD + vect. is 50/25. Also, the “MIC S. aureus USA300” value with S. aureus USA300 is over 400 µM. Besides, the “MIC E. coli BW25113” value with E. coli BW25113 (Table 8) stood at 400 µM. For the same compound, the “MIC K. pneumoniae” value against K. pneumoniae was found to be 400 µM. Besides, the “MIC E coli ΔwaaD − MCR1” value in the test with E. coli ΔwaaD MCR-1 amounted to 50 µM. Also, the “MIC R. aeruginosa” value in the test on P. aeruginosa is over 800 µM.
For `CSCC[C@H](NC(=O)[C@@H]1CCCN1C(=O)[C@H](Cc1ccc(O)cc1)NC(C)=O)C(=O)N[C@@H](CN)C(=O)N[C@@H](C)C(=O)N[C@@H](CCCNC(=N)N)C(=O)N[C@@H](CCCNC(=N)N)C(=O)N[C@@H](Cc1ccccc1)C(=O)N[C@@H](CC(C)C)C(=O)N[C@@H](CCC(=O)O)C(=O)N[C@@H](CCCCN)C(=O)N[C@@H](Cc1c[nH]c2ccccc12)C(=O)NCC(=O)N[C@@H](CC(C)C)C(=O)N[C@@H](CC(C)C)C(=O)N[C@@H](CCCNC(=N)N)C(N)=O` [compound 51] (Ac-YPM[Dap]ARRFLEKWGLLR-NH2), in the test with E. coli imp4213, the “MIC E. coli imp4213” value came out at 12.5 µM (≈ 25.8 µg/mL). Besides, the “MIC A. baumannii” value with A. baumannii amounted to 100 µM (≈ 206 µg/mL). The “MIC E. coli ΔwaaD + vect.” value in the test with E. coli ΔwaaD + vect. was 100 µM. In the test on S. aureus USA300, the “MIC S. aureus USA300” value was over 400 µM. Moreover, in the test with E. coli BW25113 (Table 8), the “MIC E. coli BW25113” value worked out at 100 µM (≈ 206 µg/mL). For the same compound, the “MIC K. pneumoniae” value in the test on K. pneumoniae was determined as 200 µM (≈ 413 µg/mL). Further, in the test with E. coli ΔwaaD MCR-1, the “MIC E coli ΔwaaD − MCR1” value was determined as 200 µM (≈ 413 µg/mL). In addition, the “MIC R. aeruginosa” value against P. aeruginosa was found to be 400 µM (≈ 825 µg/mL).
With `CSCC[C@H](NC(=O)[C@@H]1CCCN1C(=O)[C@H](Cc1ccc(O)cc1)NC(C)=O)C(=O)N[C@H](C(=O)N[C@@H](C)C(=O)N[C@@H](CCCNC(=N)N)C(=O)N[C@@H](CCCNC(=N)N)C(=O)N[C@@H](Cc1ccc(-c2ccccc2)cc1)C(=O)N[C@@H](CC(C)C)C(=O)N[C@@H](CCC(=O)O)C(=O)N[C@@H](CCCCN)C(=O)N[C@@H](Cc1c[nH]c2ccccc12)C(=O)NCC(=O)N[C@@H](CC(C)C)C(=O)N[C@@H](CC(C)C)C(=O)N[C@@H](CCCNC(=N)N)C(N)=O)[C@@H](C)O` [compound 55] (Ac-YPMTARR[Bip]LEKWGLLR-NH2), the “MIC E. coli imp4213” value in the test with E. coli imp4213 was 6.25 µM (≈ 13.5 µg/mL). Besides, the “MIC A. baumannii” value against A. baumannii stood at 25 µM (≈ 53.9 µg/mL). Further, in the test on E. coli ΔwaaD + vect., the “MIC E. coli ΔwaaD + vect.” value was determined as 25 µM. For the same compound, the “MIC S. aureus USA300” value in the test on S. aureus USA300 was over 400 µM. The “MIC E. coli BW25113” value with E. coli BW25113 (Table 8) was 100 µM (≈ 215 µg/mL). The “MIC K. pneumoniae” value against K. pneumoniae came to 400 µM (≈ 862 µg/mL). Also, the “MIC E coli ΔwaaD − MCR1” value in the test on E. coli ΔwaaD MCR-1 was found to be 50 µM (≈ 108 µg/mL). In addition, in the test with P. aeruginosa, the “MIC R. aeruginosa” value is over 800 µM.
